Results on five compounds are retold here after paper PMC3991570, “A Novel Highly Potent Autotaxin/ENPP2 Inhibitor Produces Prolonged Decreases in Plasma Lysophosphatidic Acid Formation In Vivo and Regulates Urethral Tension” (PLoS ONE, 2014).

Where a name gives a salt, the structure may show the parent alone. A value given as a limit tells only on which side of the number the result lay.

Data set [1] has as its target T1, recombinant human ATX/ENPP2 (Homo sapiens, UniProt Q13822).
T1 construct: (His)6 (C); made in house; host or cells: baculovirus AcNPV; virus made in Sf9, protein expressed in expresSF+ insect cells, from culture supernatant
Kind of data set: FS-3 assay of LysoPLD activity (2 h). The data set is classed as biochemical. Particulars: synthetic fluorescent substrate FS-3, 2 h; read-out: In vitro IC50, Recombinant human ATX/ENPP2, FS-3 (2 h). As to the method:
Recombinant ATX/ENPP2 protein (2 µg/ml) and various concentrations of the inhibitors were mixed and incubated at 37°C for 2 h in 100 mM Tris-HCl buffer (pH 8.0) containing 1%DMSO, 500 mM NaCl, 5 mM MgCl2, and 0.05% Triton X-100, in the presence of a fluorescent substrate FS-3 (1 µM). After incubation, fluorescence at 520 nm with excitation at 494 nm was measured.
(§1) Measurement points of choline production were plotted against the concentration of the inhibitor and the theoretical curve to obtain the IC50 value of the inhibitor for LysoPLD activity was obtained using the Activity Base version 7.1.0.39 software from ID Business Solutions Ltd.

Data set [2] concerns the target T1, recombinant human ATX/ENPP2. Kind of data set: Choline release assay, 16:0-LPC substrate, 30 min incubation. In kind it is biochemical. Particulars: read-out: In vitro IC50, Recombinant human ATX/ENPP2, Choline (30 min). The procedure: In the choline release assay, a series of reaction mixtures containing different concentrations of the inhibitors were tested in parallel. Recombinant ATX/ENPP2 was dissolved in 100 mM Tris-HCl buffer (pH 9.0) containing 500 mM NaCl, 5 mM MgCl2 and 0.05% Triton X-100. First, the aqueous solution of recombinant ATX/ENPP2 (final concentration 2 µg/ml) was added to the reaction mixture containing different concentrations of the inhibitors, 1 mM 16:0-LPC, and DMSO 1%. Then, each mixture was incubated at 37°C for 30 min (primary reaction). A samples of each reaction mixture was subjected to the secondary incubation at 37°C for 30 min with 10 times the volume of 100 µM Amplex Red in 50 mM Tris-HCl buffer (pH 8.0), 1 U/ml horseradish peroxidase, 150 mU/ml choline oxidase and 5 mM CaCl2,. Fluorescence at 590 nm was measured with excitation at 544 nm and the amount of choline released in each reaction mixture was quantified based on a calibration curve created from a choline chloride standard.
as §1

For data set [3] the target is unchanged. Kind of data set: Choline release assay, 16:0-LPC substrate, overnight (15 h) incubation. In kind it is biochemical. Particulars: about 15 h incubation, read-out: In vitro IC50, Recombinant human ATX/ENPP2, Choline (O/N). As to the method: A series of reaction mixtures containing different concentrations of the inhibitors were also tested in parallel using an overnight incubation. First, the aqueous solution of recombinant ATX/ENPP2 (final concentration 2 µg/ml) or plasma samples from various animal species (final concentration 40%) was added to the reaction mixture containing different concentrations of ATX/ENPP2 inhibitors, 1 mM 16:0-LPC, and 1% DMSO. Then, each mixture was incubated at 37°C for 15 h (primary reaction). Samples of each mixture were subjected to the secondary reaction with 10 volumes of 300 µM TOOS in 100 mM Tris-HCl solution (pH 8.5), 500 µM 4-aminoantipyrine, 600 mU/ml horseradish peroxidase, 3 U/ml choline oxidase, and 5 mM CaCl2, at 37°C for 20 min (secondary reaction). […] Measurement points of choline production were plotted against the concentration of the inhibitor and the theoretical curve to obtain the IC50 value of the inhibitor for LysoPLD activity was obtained using the Activity Base version 7.1.0.39 software from ID Business Solutions Ltd.

For data set [4], the system named is plasma LPA. Set-up: method as in PMID 20392816. Particulars: at 24 h after administration; cited from earlier work.
The test system of data set [5] is urethane-anesthetized rats. Put plainly: Intraurethral pressure (IUP) in urethane-anesthetized rats. The data set is classed as in vivo, rat. As to the method:
Male Crl∶CD(SD) rats (7–8 weeks old) were anesthetized by intraperitoneal administration of urethane at a dose of 1.5 g/5 ml/kg. An arterial catheter (JMS cut-down tube; C3, JMS, Japan) was inserted into the common carotid artery to monitor blood pressure. After the abdomen was opened, another catheter (inner diameter, 0.9 mm; outer diameter, 1.5 mm; Shin-Etsu Polymer, Japan) was inserted into the duodenum and held in place with a suture thread. The abdomen was then cut along the median line and the urethra was ligated in the proximity of the pubic bone. For measurement of intraurethral pressure (IUP), a urethral catheter (JMS cut-down tube; C3, JMS Inc., Japan) was inserted from the top side of the bladder through the urethra and held in place by ligation at the bladder neck. Finally, both the arterial catheter and urethral catheter were connected to a pressure transducer (Nihon Kohden, Japan), and the rat was placed on a warm mat (37°C). Blood pressure and IUP were measured by a recorder (Graphtec, Japan) using a torsion-pressure amplifier (Nihon Kohden, Japan).
ONO-8430506 was dissolved in an aqueous solution containing 1.1 times the equivalent amount of NaOH. After confirming stabilization of IUP, rats received either the inhibitor or tamsulosin at a dose of 2 ml/kg in an aqueous solution through the duodenal catheter. IUP and blood pressure were measured continuously during the 20-min after administration of either the inhibitor or tamsulosin. At the end of the 20-min period, heparinized blood was collected from the jugular vein of the rat to prepare a plasma sample. Rats were then euthanized by intravenous administration of 1 ml of pentobarbital (Somunopentyl, Kyoritsu Seiyaku Corporation). Postmortem IUP was measured until the lowest IUP value was reached and stabilized. The maximum percent decreases relative to the difference between baseline IUP and postmortem IUP was calculated to measure the change from baseline in IUP during the 20-min after drug administration.

Data set [6] has as its system urethane-anesthetized rats. Kind of data set: Mean blood pressure in urethane-anesthetized rats. The data set is classed as in vivo, rat. Particulars: intraduodenal, up to 3 mg/kg (tamsulosin at the same dose range). The procedure:
Male Crl∶CD(SD) rats (7–8 weeks old) were anesthetized by intraperitoneal administration of urethane at a dose of 1.5 g/5 ml/kg. An arterial catheter (JMS cut-down tube; C3, JMS, Japan) was inserted into the common carotid artery to monitor blood pressure. After the abdomen was opened, another catheter (inner diameter, 0.9 mm; outer diameter, 1.5 mm; Shin-Etsu Polymer, Japan) was inserted into the duodenum and held in place with a suture thread. The abdomen was then cut along the median line and the urethra was ligated in the proximity of the pubic bone. […] Blood pressure and IUP were measured by a recorder (Graphtec, Japan) using a torsion-pressure amplifier (Nihon Kohden, Japan).
ONO-8430506 was dissolved in an aqueous solution containing 1.1 times the equivalent amount of NaOH. […] IUP and blood pressure were measured continuously during the 20-min after administration of either the inhibitor or tamsulosin. […] Postmortem IUP was measured until the lowest IUP value was reached and stabilized. The maximum percent decreases relative to the difference between baseline IUP and postmortem IUP was calculated to measure the change from baseline in IUP during the 20-min after drug administration.

The test system of data set [7] is isolated rat urethra. Put plainly: Contraction of isolated rat urethra (Magnus apparatus). Conditions: 100 nM to 30 µM added cumulatively. The procedure: Krebs-Henseleit buffer (112 mM NaCl, 5.9 mM KCl, 2.0 mM CaCl2, 1.2 mM MgCl2, 1.2 mM NaH2PO4, 25.0 mM NaHCO3 and 11.5 mM glucose) was prepared and aerated with 95%O2+5%CO2. 8-week old male CD (SD) IGS rats (Charles River Laboratories Japan, Inc.) were decapitated and exsanguinated. The urethra was excised and immediately immersed in ice-cooled Krebs-Henseleit buffer. The excised urethra was cut open and flattened using ophthalmologic scissors. The opened and flattened urethra was cut along the circular muscle into ‘ring-shaped’ strips 2–3 mm in width×3–4 mm in length using a razor. One ‘ring-shaped’ urethral specimen was prepared for each male rat.
Each prepared urethral specimen was hung inside a 5-ml Magnus tube filled with Krebs-Henseleit buffer (30°C). A resting tension of approximately 0.5 g was applied to the specimen for 60 min until it was stabilized. Thereafter, contraction motions of the specimen were recorded on a linear recorder (Model WR3320, Graphtec Corp.) after being amplified by a torsion-pressure amplifier (Models AP-641G and AP-601G, Nihon Kohden Corporation) and a force displacement pick-up transducer (Model TB-611T, Nihon Kohden Corporation). […] Phenylephrine (10 nM to 1 mM, Sigma-Aldrich) or 18:3-LPA (100 nM to 30 µM) was cumulatively added to the medium and the contractile force of each urethral specimen was measured.

On to `O=C1S/C(=C\c2ccc(OCc3cccc(B(O)O)c3)cc2)C(=O)N1Cc1ccc(F)cc1` [HA130], for which the IC50 in data set [1] amounted to 120 nM; in data set [2], 43 nM; in data set [3], 580 nM.
Turning to `O=C(CCN1CCN(C(=O)OCc2cc(Cl)cc(Cl)c2)CC1)c1ccc2[nH]c(=O)oc2c1` [PF-8380], the “plasma LPA level after oral administration” value in data set [4] is reported as “returned to the normal baseline level”.
Take `CCCCCCCCCCCCCC(=O)Nc1ccc(CP(=O)(O)O)cc1` [S32826]: the IC50 in data set [1] is 17 nM; in data set [2] it was 66 nM; in data set [3] it was above 10000 nM.
Take `CCOc1ccccc1OCCN[C@H](C)Cc1ccc(OC)c(S(N)(=O)=O)c1` [tamsulosin, tamsulosin hydrochloride]: the “decrease in IUP” value in data set [5] (0.3 mg/kg intraduodenal, maximum percent decrease during 20 min) was 28%. In data set [5] (intraduodenal), the “dose of maximum effect on IUP” value came to 0.3 mg/kg and the “doses at which IUP decreased” value is on record as “higher than 0.03 mg/kg”. For the same compound, the “effect on mean blood pressure (MBP)” value in data set [6] was “drastically decreased”.
For the compound “linolenoyl-lysophosphatidic acid [18:3-LPA]”, in data set [7], the “contractile effect in isolated rat urethra” value is reported as “comparable to phenylephrine”.
